Values of other authors, collected in patent US8198264B2, “Method for treating head and neck cancer” (National Cancer Center, priority 2006, dated 2012).

Key:
[1] = tested on: squamous cell head and neck cancer; conditions: regimen combined with radiotherapy, meta-analysis
[2] = tested on: advanced/relapsed head and neck cancer; conditions: 5-FU drug alone, continuous intravenous infusion

Compound	odds ratio (add-on effect on survival) [1]	response rate [2]
O=c1[nH]cc(F)c(=O)[nH]1 [5-FU, 5-fluorouracil]	0.66	15%
CO[C@@]12[C@H](COC(N)=O)C3=C(C(=O)C(C)=C(N)C3=O)N1C[C@@H]1N[C@@H]12 [Mitomycin C]	0.54	
Bleomycin	0.80	
